Test results reported in US20220387544A1, “NOVEL THERAPEUTIC USE” (Artios Pharma Limited, priority 2019, published 2022).

How the values were obtained:
Assay type in all cases: cell-based
[1] = system: parental and C20orf196 KO SUM149 tumouroids; experiment: Tumouroid assay, parental vs C20orf196 KO SUM149; conditions: in C20orf196 KO cells when compared with olaparib
Protocol: Cells were seeded into a hydrogel containing 10% rat tail collagen (OcellO) in 384-well high content imaging microplates at varying densities to compensate for differential growth characteristics (Table 2).
24 hours after seeding, test compounds and olaparib (Selleckchem) were added in an eight-point dose range with a one in three serial dilution (maximum concentration 12 μM for all compounds, except 30 μM compound A for REV7 KO cell experiments). Dimethyl sulfoxide (DMSO) and 1 μM staurosporine (Med Chem Express) treatments were included as negative and positive controls, respectively. All treatments were carried out in quadruplicate.
After seven or fourteen days of treatment for 20orf196 KO and REV7 KO experiments respectively, cells were fixed with 5× Fix & Stain solution (OcellO) for 16 hours at 4° C. to stain both the nuclei using Hoechst 33258 and the actin cytoskeleton using Rhodamine-Phalloidin. Cells were washed four times with phosphate-buffered saline (PBS), and plates were imaged and analysed using OcellO's three-dimensional image analysis software (Ominer). For each well, two channels of 16-bit image stacks were collected using an automated microscope system: Molecular Devices ImageXpress Micro XLS, equipped with a 4× magnification/0.2NA PlanApo objective. For each image slice (n=47), pixel size was 0.324 μm and step size in z-direction was 50 μm.
Parental or C20orf196 KO SUM149 cells were seeded into a collagen-containing hydrogel in 384-well plates and incubated overnight. The resulting tumouroids were treated with a serial dilution of Polθ inhibitor or olaparib for seven days, fixed, and stained to visualise DNA and F-actin. Plates were imaged, and tumouroid size was measured using OcellO's three-dimensional image analysis software.
(§1) Parental or C20orf196 KO SUM149 cells were seeded into a collagen-containing hydrogel in 384-well plates and incubated overnight. The resulting tumouroids were treated with a serial dilution of Polθ inhibitor or olaparib for seven days, fixed, and stained to visualise DNA and F-actin. Plates were imaged, and the number of nuclei per tumouroid was counted using OcellO's three-dimensional image analysis software.
as §1, with “with” for “with a serial dilution of”, “inhibitor, olaparib” for “inhibitor”, “control compound (at the concentrations indicated)” for “olaparib”, “fraction” for “number”, “without an associated actin cytoskeleton” for “per tumouroid”, “calculated” for “counted”

[2] = system: parental and REV7 KO 22Rv1 cells; experiment: Colony formation assay, 22Rv1; conditions: REV7 KO vs REV7 wild type parental 22Rv1 cells, 2 weeks
Protocol: 1 mL of cells were seeded per well in a 24-well plate in triplicate and incubated overnight at 37° C. Cells were treated with a seven-point dose response curve with a one-in-three serial dilution of compound for the timepoints listed in Table 5. For MDA-MB-436 cells media was replenished every five days.
Cells were fixed with 70% ethanol for 20 minutes at room temperature with shaking. Cells were then stained with 0.04% Crystal Violet (Sigma Aldrich) for 20 minutes at room temperature with shaking. Cells were washed 6 times with water and air-dried overnight.
Plates were imaged using a Gelcount (Oxford Optronix), and colonies were counted using parameters optimized for each cell line. 22Rv1 viability curves were generated from the colony counts alone. MDA-MB-436 and […] viability curves were generated from solubilized colonies. Colonies were solubilized using 10% acetic acid (VWR) for 30 minutes, absorbance at 595 nm was read using the Clariostar plate reader (BMG Labtech), and blank correction was applied. Relative Survival was calculated by normalization of compound treated wells to DMSO treated wells.
The effect of a DNA polymerase theta (Polθ) inhibitor (Compound A) or the PARP inhibitor olaparib on the survival of parental (REV7 wild type) or REV7 deleted (REV7 KO) 22Rv1 cells was investigated in colony formation assays (CFA—see protocol above). […]

[3] = system: Parental and REV7 KO SUM149 cells; experiment: Clonogenic survival assay (ICR), SUM149 REV7 KO clones; conditions: REV7 KO clones vs parental SUM149, 14 days
Protocol: Clonogenic survival assays were performed as previously described (Edwards et al Nature (2008) 451, 1111-1115; Farmer et al Nature (2005) 434, 917-921). For measurement of sensitivity to Compound A inhibitor, exponentially growing cells were seeded in six-well plates at a concentration of 1000-2000 cells per well. For Compound A, cells were continuously exposed to the drug with media and drug replaced every 72 h. After 14 days, cells were fixed and stained with sulphorhodamine-B (Sigma) and colonies were counted. SFs were calculated and drug sensitivity curves plotted as previously described (Farmer et al Nature (2005) 434, 917-921).
Parental or REV7 KO SUM149 cells were seeded into 6 well plates and incubated overnight. The cells were then treated with a serial dilution of Polθ inhibitor or olaparib for 14 days, fixed, and stained with sulphorhodamine B. The colonies in each well were counted and normalised survival data plotted to generate a dose-response curve.

With Cc1cccc(N(C)C(=O)[C@@H]2[C@H](O)CCN2c2nc(C)cc(C(F)(F)F)c2C#N)c1 [Compound A, (2S,3R)-1-(3-cyano-6-methyl-4-(trifluoromethyl)pyridin-2-yl)-3-hydroxy-N-methyl-N-(m-tolyl)pyrrolidine-2-carboxamide] the cell death [1] was “significantly more cell death”, the “reduction in the number of nuclei per tumoroid” value [1] was “greater reduction in the number of nuclei per tumoroid” and the “reduction in tumoroid size” value [1] was “greater reduction in tumoroid size”. For the same molecule, the “sensitivity by relative survival (colonies)” value [2] was “significantly more sensitive” and the “sensitivity by reduction in number of colonies” value [3] was “increased sensitivity”.
